Reference: paper PMC6591397, “Functional Roles of Metabolic Intermediates in Regulating the Human Mitochondrial NAD(P)^+-Dependent Malic Enzyme” (Scientific Reports, 2019)
Where “and” joins values, the source holds several entries; their conditions need not be identical. Equal values may be shown once. Where a name gives a salt, the structure may show the parent alone. Read-outs that look alike come from different tables or passages of the source.

Tests used:
human m-NAD(P)-ME WT = target: T1, human m-NAD(P)-ME WT (Homo sapiens, UniProt P23368); assay: ATP/ADP inhibition of enzyme activity; type: biochemical
T1 construct: made in house; host or cells: E. coli BL21 (pRH281 vector, trp promoter)
T1 sequence (P23368 19-584): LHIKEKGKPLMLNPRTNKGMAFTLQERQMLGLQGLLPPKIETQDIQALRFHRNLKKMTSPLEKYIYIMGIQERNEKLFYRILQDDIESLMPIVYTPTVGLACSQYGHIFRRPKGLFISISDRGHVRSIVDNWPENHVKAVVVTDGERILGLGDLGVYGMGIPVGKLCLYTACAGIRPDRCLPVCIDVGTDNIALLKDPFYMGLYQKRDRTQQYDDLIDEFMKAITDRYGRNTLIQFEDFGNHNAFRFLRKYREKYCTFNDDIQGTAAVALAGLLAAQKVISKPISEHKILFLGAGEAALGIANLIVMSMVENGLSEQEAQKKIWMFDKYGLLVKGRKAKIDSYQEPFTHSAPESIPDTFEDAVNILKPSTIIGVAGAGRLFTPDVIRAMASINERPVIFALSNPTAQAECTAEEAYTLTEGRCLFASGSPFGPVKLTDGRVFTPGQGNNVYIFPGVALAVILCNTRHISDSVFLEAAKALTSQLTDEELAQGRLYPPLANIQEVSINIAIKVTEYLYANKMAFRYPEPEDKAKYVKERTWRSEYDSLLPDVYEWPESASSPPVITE
Experimental: (§1) The ME reaction was measured with the production rate of NADH or NADPH via the absorbance at 340 nm. The reaction mixture in a saturated condition included 1 mM NAD(P)^+, 40 mM malate, and 10 mM MgCl2 in 50 mM Tris-HCl (pH 7.4). To determine the Km and kcat values, the concentration of one substrate was varied around its Km values while the concentrations of the other components were fixed at saturated concentrations.
C is the slope of the curve at its midpoint. […] All of the calculations were performed using the Sigma Plot 10.0 software program (Jandel Scientific, San Rafael, CA, USA).

lung tumor = system: lung tumor; set-up: method as in PMID 24957098; conditions: in vivo; cited from earlier work
[1] = system: human non-small cell lung carcinoma H1299 cancer cells; set-up: method as in PMID 26008970; conditions: cited from earlier work
m-NAD(P)-ME [2] = target: T2, m-NAD(P)-ME (Homo sapiens, UniProt P23368); assay: Fumarate titration, activation of enzyme activity; type: biochemical; conditions: WT; 15 mM L-malate, 10 mM MgCl2, 1 mM NAD+, pH 7.4; fumarate 0 to 6 mM
T2 construct: made in house; host or cells: E. coli BL21 (pRH281 vector, trp promoter)
T2 sequence (P23368 19-584): as above
Experimental: as §1
Figure S2. Fumarate activating effect on human m-NAD(P)-ME WT and the exosite mutants.

m-NAD(P)-ME [3] = target: T2, m-NAD(P)-ME; assay: Size distribution analysis by analytical ultracentrifugation: monomer-dimer-tetramer equilibrium with different ligands; type: binding; conditions: NAD+-bound enzyme vs apoenzyme
Experimental: All sedimentation velocity data were globally fitted by a monomer-dimer-tetramer equilibrium model by the software program of SEDPHAT[34]. The parameters protein partial specific volume, solvent density and viscosity were calculated with the [sequence] software program[35].

m-NAD(P)-ME [4] = target: T2, m-NAD(P)-ME; assay: Quaternary structure analysis by native gel electrophoresis; type: binding; conditions: 8 μg enzyme; 0.4 or 2 mM NAD+, 0.5 or 2 mM ATP
Experimental: The native gel was running under 110 Voltage with a running buffer (25 mM Tris-HCl and 192 mM glycine, pH8.3) at 4 °C. After electrophoresis, protein was detected by staining with the Coomassie brilliant blue R-250.
Figure S1. Quaternary structure of m-NAD(P)-ME determined by the native gel electrophoresis. The dimer-tetramer distribution of m-NAD(P)-ME was presented on the 3-12% Bis-Tris Native PAGE (NativePAGE^TM Novex®, Life Technologies).

[5] = target: human m-NAD(P)-ME WT and the exosite mutants; assay: Size distribution analysis by analytical ultracentrifugation of WT and exosite mutants, protein only, with NAD+ or with ATP; type: binding; conditions: PBS
Experimental: Size distribution of the monomer-dimer-tetramer equilibrium of the enzyme was monitored using a Beckman Optima XL-A analytical ultracentrifuge instrument. A protein sample (380 µl) and reference buffer (400 µl) were loaded into a well-assembled cell with a double-sector centerpiece. Experiments were performed with an An-50Ti rotor at 42,000 rpm and 20 °C for 3 to 4 hours. The scans for sedimentation velocity data were monitored by the UV absorbance at 280 nm with a 480 s interval time and a 0.002 cm step size in continuous distribution mode. Using the SEDFIT 9.4c software[31]–[34], the size distribution of the enzyme was analyzed with a resolution corresponding to N = 200 to cover the range of sedimentation coefficient (S) values from approximately 0.1 to 20, a confidence level of p = 0.95, and a best-fit average anhydrous frictional ratio (f/f0). The dissociation constants of monomer-dimer-tetramer self-association model were globally analyzed by using the SEDPHAT software.
All sedimentation velocity data were globally fitted by a monomer-dimer-tetramer equilibrium model by the software program of SEDPHAT[34]. The parameters protein partial specific volume, solvent density and viscosity were calculated with the […] software program.
Figure 4 Continuous sedimentation coefficient distribution of human m-NAD(P)-ME WT and the exosite mutants. The enzyme concentrations were fixed at 1.6, 4.7, and 14.2 μM in PBS. […] (a) ME2_WT; (b) ME2_H154V; (c) ME2_K156A; (d) ME2_G192A; (e) ME2_R194N; (f) ME2_R197E; (g) ME2_R197D.
Figure 5 Continuous sedimentation coefficient distribution of human m-NAD(P)-ME WT and the exosite mutants. The enzyme concentrations were fixed at 1.6, 4.7, and 14.2 μM in PBS. […] (a) ME2_N482G; (b) ME2_N482A; (c) ME2_R542V; (d) ME2_Y552F; (e) ME2_R556Q; (f) ME2_R556V.

[6] = system: human m-NAD(P)-ME WT and exosite mutants; assay: Enzyme kinetic assay (NADH production, absorbance at 340 nm) of WT and exosite mutants; type: biochemical; conditions: for K0.5,malate / Km / kcat: pH 7.4
Experimental: as §1
The cooperativity of malate was determined with the following equation: ν=Vmax×[Malate]^h/K0.5h+[Malate]^h where ν is the initial velocity, Vmax is the maximum rate of the reaction, K0.5 is the substrate concentration at half-maximal velocity, and h is the Hill coefficient, which represents the degree of cooperativity.

[7] = protein only, read-out: Kd,12 monomer-dimer dissociation constant
[8] = protein only, read-out: Kd,24 dimer-tetramer dissociation constant
[9] = read-out: Kd,12(ATP), with 0.5 mM ATP
[10] = read-out: Kd,24(ATP), with 0.5 mM ATP
[11] = with 0.4 mM NAD+, read-out: Kd,12(NAD)
[12] = with 0.4 mM NAD+, read-out: Kd,24(NAD)

Compound | Kd [5, 7] [µM] | Kd [5, 8] [µM] | Kd [5, 9] [µM] | Kd [5, 10] [µM] | Kd [5, 11] [µM] | Kd [5, 12] [µM] | h (Hill coefficient, malate cooperativity) ([6]; (+) with 5 mM fumarate) | K0.5,malate ([6]; (+) with 5 mM fumarate) [mM] | Km ([6]; (+) with 5 mM fumarate) [µM] | kcat ([6]; (+) with 5 mM fumarate) [s⁻¹] | h (Hill coefficient, malate cooperativity) ([6]; (−) without fumarate) | K0.5,malate ([6]; (−) without fumarate) [mM] | Km ([6]; (−) without fumarate) [µM] | kcat ([6]; (−) without fumarate) [s⁻¹] | further results
Nc1ncnc2c1ncn2[C@@H]1O[C@H](COP(=O)(O)OP(=O)(O)O)[C@@H](O)[C@H]1O [ADP] | – | – | – | – | – | – | – | – | – | – | – | – | – | – | IC50 (human m-NAD(P)-ME WT): 3740 µM and 3700 µM
COC(=O)CC(O)C(=O)OC (stereo not shown) [DMM, dimethyl-malate] | – | – | – | – | – | – | – | – | – | – | – | – | – | – | effect on lung tumor growth (lung tumor): suppress lung tumor growth in vivo
O=C(O)c1cc2ccccc2c(Cc2c(O)c(C(=O)O)cc3ccccc23)c1O [EA, Embonic acid] | – | – | – | – | – | – | – | – | – | – | – | – | – | – | effect on cell growth [1]: suppresses the cell growth; effect on cellular senescence [1]: induces the cellular senescence
O=C(O)/C=C/C(=O)O [FUM, fumarate] | – | – | – | – | – | – | – | – | – | – | – | – | – | – | maximal activation of the enzyme by fumarate (m-NAD(P)-ME [2]): approximately 2 fold
NC(=O)c1ccc[n+]([C@@H]2O[C@H](COP(=O)([O-])OP(=O)(O)OC[C@H]3O[C@@H](n4cnc5c(N)ncnc54)[C@H](O)[C@@H]3O)[C@@H](O)[C@H]2O)c1 [NAD, NAD^+] | – | – | – | – | – | – | – | – | – | – | – | – | – | – | Kd,24 lower than that of the apoenzyme (m-NAD(P)-ME [3]): 6 fold; dimer-tetramer distribution of the enzyme on native gel (m-NAD(P)-ME [4]): most tetrameric forms
R194N: exosite mutant of human m-NAD(P)-ME | 0.31 ± 0.01 | 0.23 ± 0.01 | 0.08 ± 0.001 | 1.44 ± 0.03 | 0.17 ± 0.01 | 0.04 ± 0.001 | 1.08 ± 0.08 | 5.11 ± 0.50 | 760 ± 70 | 227.4 ± 6.1 | 2.18 ± 0.15 | 19.53 ± 0.91 | 1600 ± 160 | 204.4 ± 8.3 | –
R197D: exosite mutant of human m-NAD(P)-ME | 0.8 ± 0.02 | 0.26 ± 0.01 | 0.69 ± 0.02 | 0.11 ± 0.003 | 0.06 ± 0.003 | 0.81 ± 0.04 | 1.06 ± 0.05 | 4.98 ± 0.28 | 130 ± 20 | 216.0 ± 0.1 | 1.76 ± 0.23 | 17.82 ± 2.01 | 460 ± 50 | 206.8 ± 0.1 | –
R197E: exosite mutant of human m-NAD(P)-ME | 0.03 ± 0.001 | 2.33 ± 0.08 | 0.1 ± 0.003 | 0.59 ± 0.02 | 0.1 ± 0.003 | 1.11 ± 0.04 | 1.24 ± 0.10 | 4.55 ± 0.37 | 1110 ± 90 | 187.6 ± 5.2 | 1.65 ± 0.30 | 23.37 ± 4.48 | 2370 ± 280 | 165.2 ± 20.4 | –
R542V: exosite mutant of human m-NAD(P)-ME | 0.01 ± 0.001 | 0.44 ± 0.01 | 0.02 ± 0.001 | 9.87 ± 0.38 | 1.87 ± 0.08 | 0.21 ± 0.01 | 1.06 ± 0.11 | 5.89 ± 0.78 | 910 ± 180 | 239.3 ± 12.6 | 1.43 ± 0.09 | 27.00 ± 3.44 | 2180 ± 270 | 175.6 ± 14.0 | –
R556Q: exosite mutant of human m-NAD(P)-ME | 0.01 ± 0.003 | 1.75 ± 0.06 | 0.4 ± 0.01 | 0.18 ± 0.01 | 0.18 ± 0.01 | 0.91 ± 0.03 | 1.20 ± 0.07 | 4.75 ± 0.31 | 690 ± 60 | 251.8 ± 5.6 | 1.71 ± 0.27 | 19.01 ± 2.40 | 1160 ± 220 | 220.5 ± 16.2 | –
R556V: exosite mutant of human m-NAD(P)-ME | 0.13 ± 0.001 | 2.3 ± 0.02 | 2.03 ± 0.06 | 0.18 ± 0.01 | 0.6 ± 0.01 | 4.07 ± 0.08 | 1.24 ± 0.30 | 1.87 ± 0.26 | 360 ± 20 | 204.9 ± 9.5 | 2.35 ± 0.47 | 15.90 ± 1.51 | 1080 ± 60 | 195.2 ± 12.8 | –
WT: wild-type human mitochondrial NAD(P)+-dependent malic enzyme (ME2), recombinant from E. coli | 0.24 ± 0.002 | 0.35 ± 0.003 | 0.64 ± 0.01 | 2.72 ± 0.06 | 0.66 ± 0.01 | 0.05 ± 0.001 | 1.10 ± 0.09 | 2.98 ± 0.21 | 390 ± 50 | 261.7 ± 6.0 | 2.41 ± 0.32 | 10.67 ± 0.64 | 540 ± 60 | 252.0 ± 8.2 | h (Hill coefficient, malate cooperativity) ([6]; (−) without fumarate, listed as Human m-NAD(P)-ME): approximately 2
